Measured values reported in patent US6706740B2, “Fungicidal heterocyclic aromatic amides and their compositions, methods of use and preparation” (Dow AgroSciences LLC, priority 1999, dated 2004).

Test system: Magnaporthe grisea (Pyricularia oryzae—PYRIOR)
Test: microbe, parasite or virus in culture
Format: cell-based
Settings: Pyricularia oryzae, read-out: PYRIOR in vitro Growth Inhibition

| Structure (SMILES) | inhibition at 25 ppm [%] |
| --- | --- |
| COc1ccnc(C(=O)Nc2ccc(Oc3ccc(C(F)(F)F)cc3)cc2)c1O [Compound 425, 3-HYDROXY-4-METHOXY-N-(4-(4-TRIFLUOROMETHYLPHENOXY)PHENYL)-PYRIDINE-2-CARBOXAMIDE] | > 80 |
| COc1ccnc(C(=O)N[C@H]2COC(=O)[C@H](Cc3ccccc3)[C@@H](OC(=O)C3CCCC3)[C@H](C)OC2=O)c1O [Compound 391] | > 80 |
| COc1ccnc(C(=O)N[C@H]2COC(=O)[C@H](Cc3ccccc3)[C@@H](OC(=O)C(C)C)[C@H](C)OC2=O)c1OC(=O)C1CCCCC1 [Compound 612] | < 80 |
| COc1ccnc(C(=O)NC2CC(C)(C)C=CC(C)C2C)c1O (centres unmarked) [Compound 279] | < 80 |

Test system: Rhizoctonia solani (RHIZSO)
Test: microbe, parasite or virus in culture
Format: cell-based
Settings: Rhizoctonia solani, read-out: RHIZSO in vitro Growth Inhibition

| Structure (SMILES) | inhibition at 25 ppm [%] |
| --- | --- |
| COc1ccnc(C(=O)Nc2ccc(Oc3ccc(C(F)(F)F)cc3)cc2)c1O [Compound 425, 3-HYDROXY-4-METHOXY-N-(4-(4-TRIFLUOROMETHYLPHENOXY)PHENYL)-PYRIDINE-2-CARBOXAMIDE] | > 80 |
| COc1ccnc(C(=O)N[C@H]2COC(=O)[C@H](Cc3ccccc3)[C@@H](OC(=O)C3CCCC3)[C@H](C)OC2=O)c1O [Compound 391] | < 80 |
| COc1ccnc(C(=O)N[C@H]2COC(=O)[C@H](Cc3ccccc3)[C@@H](OC(=O)C(C)C)[C@H](C)OC2=O)c1OC(=O)C1CCCCC1 [Compound 612] | < 80 |
| COc1ccnc(C(=O)NC2CC(C)(C)C=CC(C)C2C)c1O (centres unmarked) [Compound 279] | < 80 |

Test system: Mycosphaerella graminicola (Septoria tritici—SEPTTR)
Test: In vitro fungal growth inhibition, Mycosphaerella graminicola (SEPTTR)
Format: cell-based
Settings: Zymoseptoria tritici; 25 ppm in growth medium; read-out: SEPTTR in vitro Growth Inhibition

| Structure (SMILES) | inhibition at 25 ppm [%] |
| --- | --- |
| COc1ccnc(C(=O)Nc2ccc(Oc3ccc(C(F)(F)F)cc3)cc2)c1O [Compound 425, 3-HYDROXY-4-METHOXY-N-(4-(4-TRIFLUOROMETHYLPHENOXY)PHENYL)-PYRIDINE-2-CARBOXAMIDE] | > 80 |
| COc1ccnc(C(=O)N[C@H]2COC(=O)[C@H](Cc3ccccc3)[C@@H](OC(=O)C3CCCC3)[C@H](C)OC2=O)c1O [Compound 391] | > 80 |
| COc1ccnc(C(=O)N[C@H]2COC(=O)[C@H](Cc3ccccc3)[C@@H](OC(=O)C(C)C)[C@H](C)OC2=O)c1OC(=O)C1CCCCC1 [Compound 612] | < 80 |
| COc1ccnc(C(=O)NC2CC(C)(C)C=CC(C)C2C)c1O (centres unmarked) [Compound 279] | > 80 |

Test system: Stagonospora nodorum (Leptosphaeria nodorum—LEPTNO)
Test: In vitro fungal growth inhibition, Stagonospora nodorum (LEPTNO)
Format: cell-based
Settings: Leptosphaeria; 25 ppm in growth medium; read-out: LEPTNO in vitro Growth Inhibition

| Structure (SMILES) | inhibition at 25 ppm [%] |
| --- | --- |
| COc1ccnc(C(=O)Nc2ccc(Oc3ccc(C(F)(F)F)cc3)cc2)c1O [Compound 425, 3-HYDROXY-4-METHOXY-N-(4-(4-TRIFLUOROMETHYLPHENOXY)PHENYL)-PYRIDINE-2-CARBOXAMIDE] | > 80 |
| COc1ccnc(C(=O)N[C@H]2COC(=O)[C@H](Cc3ccccc3)[C@@H](OC(=O)C3CCCC3)[C@H](C)OC2=O)c1O [Compound 391] | > 80 |
| COc1ccnc(C(=O)N[C@H]2COC(=O)[C@H](Cc3ccccc3)[C@@H](OC(=O)C(C)C)[C@H](C)OC2=O)c1OC(=O)C1CCCCC1 [Compound 612] | > 80 |
| COc1ccnc(C(=O)NC2CC(C)(C)C=CC(C)C2C)c1O (centres unmarked) [Compound 279] | > 80 |

Test system: Ustilago maydis (USTIMA)
Test: microbe, parasite or virus in culture
Format: cell-based
Settings: Mycosarcoma maydis, read-out: USTIMA in vitro Growth Inhibition

| Structure (SMILES) | inhibition at 25 ppm [%] |
| --- | --- |
| COc1ccnc(C(=O)Nc2ccc(Oc3ccc(C(F)(F)F)cc3)cc2)c1O [Compound 425, 3-HYDROXY-4-METHOXY-N-(4-(4-TRIFLUOROMETHYLPHENOXY)PHENYL)-PYRIDINE-2-CARBOXAMIDE] | < 80 |
| COc1ccnc(C(=O)N[C@H]2COC(=O)[C@H](Cc3ccccc3)[C@@H](OC(=O)C3CCCC3)[C@H](C)OC2=O)c1O [Compound 391] | > 80 |
| COc1ccnc(C(=O)N[C@H]2COC(=O)[C@H](Cc3ccccc3)[C@@H](OC(=O)C(C)C)[C@H](C)OC2=O)c1OC(=O)C1CCCCC1 [Compound 612] | < 80 |
| COc1ccnc(C(=O)NC2CC(C)(C)C=CC(C)C2C)c1O (centres unmarked) [Compound 279] | < 80 |

Test system: Phytophthora infestans (PHYTIN)
Test: microbe, parasite or virus in culture
Format: cell-based
Settings: Phytophthora infestans, read-out: PHYTIN in vitro Growth Inhibition

| Structure (SMILES) | inhibition at 25 ppm [%] |
| --- | --- |
| COc1ccnc(C(=O)Nc2ccc(Oc3ccc(C(F)(F)F)cc3)cc2)c1O [Compound 425, 3-HYDROXY-4-METHOXY-N-(4-(4-TRIFLUOROMETHYLPHENOXY)PHENYL)-PYRIDINE-2-CARBOXAMIDE] | < 80 |
| COc1ccnc(C(=O)N[C@H]2COC(=O)[C@H](Cc3ccccc3)[C@@H](OC(=O)C3CCCC3)[C@H](C)OC2=O)c1O [Compound 391] | < 80 |
| COc1ccnc(C(=O)N[C@H]2COC(=O)[C@H](Cc3ccccc3)[C@@H](OC(=O)C(C)C)[C@H](C)OC2=O)c1OC(=O)C1CCCCC1 [Compound 612] | < 80 |
| COc1ccnc(C(=O)NC2CC(C)(C)C=CC(C)C2C)c1O (centres unmarked) [Compound 279] | > 80 |

Test system: Phytophthora infestans—PHYTIN
Test: whole plant or invertebrate
Format: in vivo
Settings: Phytophthora, in Solanum lycopersicum, 24 h, read-out: PHYTIN in vivo 1 Day Protectant

| Structure (SMILES) | pest or weed control at 100 ppm [%] |
| --- | --- |
| COc1ccnc(C(=O)Nc2ccc(Oc3ccc(C(F)(F)F)cc3)cc2)c1O [Compound 425, 3-HYDROXY-4-METHOXY-N-(4-(4-TRIFLUOROMETHYLPHENOXY)PHENYL)-PYRIDINE-2-CARBOXAMIDE] | 25 to 74 |
| COc1ccnc(C(=O)N[C@H]2COC(=O)[C@H](Cc3ccccc3)[C@@H](OC(=O)C3CCCC3)[C@H](C)OC2=O)c1O [Compound 391] | < 25 |
| COc1ccnc(C(=O)N[C@H]2COC(=O)[C@H](Cc3ccccc3)[C@@H](OC(=O)C(C)C)[C@H](C)OC2=O)c1OC(=O)C1CCCCC1 [Compound 612] | < 25 |
| COc1ccnc(C(=O)NC2CC(C)(C)C=CC(C)C2C)c1O (centres unmarked) [Compound 279] | 25 to 74 |

Test system: Puccinia recondita—PUCCRT
Test: Brown Rust of Wheat, in vivo whole plant, 24 Hour Protectant
Settings: 100 ppm spray, wheat, 24 hour protectant, % control of fungal infection vs untreated plants

| Structure (SMILES) | PUCCRT in vivo 1 Day Protectant |
| --- | --- |
| COc1ccnc(C(=O)N[C@H]2COC(=O)[C@H](Cc3ccccc3)[C@@H](OC(=O)C(C)C)[C@H](C)OC2=O)c1OC(=O)C1CCCCC1 [Compound 612] | + + |

Same assay, conditions: Puccinia; 100 ppm spray, 24 hour protectant, wheat; control of fungal infection vs untreated plants; read-out: PUCCRT in vivo 1 Day Protectant

| Structure (SMILES) | pest or weed control at 100 ppm [%] |
| --- | --- |
| COc1ccnc(C(=O)NC2CC(C)(C)C=CC(C)C2C)c1O (centres unmarked) [Compound 279] | < 25 |

Same assay, conditions: Puccinia; 100 ppm spray, wheat, 24 hour protectant; control of fungal infection vs untreated plants; read-out: PUCCRT in vivo 1 Day Protectant

| Structure (SMILES) | pest or weed control at 100 ppm [%] |
| --- | --- |
| COc1ccnc(C(=O)Nc2ccc(Oc3ccc(C(F)(F)F)cc3)cc2)c1O [Compound 425, 3-HYDROXY-4-METHOXY-N-(4-(4-TRIFLUOROMETHYLPHENOXY)PHENYL)-PYRIDINE-2-CARBOXAMIDE] | 25 to 74 |
| COc1ccnc(C(=O)N[C@H]2COC(=O)[C@H](Cc3ccccc3)[C@@H](OC(=O)C3CCCC3)[C@H](C)OC2=O)c1O [Compound 391] | 25 to 74 |

Test system: Erysiphe graminis—ERYSGT
Test: Powdery Mildew of Wheat, in vivo whole plant, 24 Hour Protectant
Settings: Erysiphe; 100 ppm spray, 24 hour protectant, wheat; control of fungal infection vs untreated plants; read-out: ERYSGT in vivo 1 Day Protectant

| Structure (SMILES) | pest or weed control at 100 ppm [%] |
| --- | --- |
| COc1ccnc(C(=O)NC2CC(C)(C)C=CC(C)C2C)c1O (centres unmarked) [Compound 279] | 25 to 74 |

Same assay, conditions: Erysiphe; 100 ppm spray, wheat, 24 hour protectant, % control of fungal infection vs untreated plants; read-out: ERYSGT in vivo 1 Day Protectant

| Structure (SMILES) | pest or weed control at 100 ppm [%] |
| --- | --- |
| COc1ccnc(C(=O)N[C@H]2COC(=O)[C@H](Cc3ccccc3)[C@@H](OC(=O)C(C)C)[C@H](C)OC2=O)c1OC(=O)C1CCCCC1 [Compound 612] | < 25 |

Same assay, conditions: Erysiphe; 100 ppm spray, wheat, 24 hour protectant; control of fungal infection vs untreated plants; read-out: ERYSGT in vivo 1 Day Protectant

| Structure (SMILES) | pest or weed control at 100 ppm [%] |
| --- | --- |
| COc1ccnc(C(=O)Nc2ccc(Oc3ccc(C(F)(F)F)cc3)cc2)c1O [Compound 425, 3-HYDROXY-4-METHOXY-N-(4-(4-TRIFLUOROMETHYLPHENOXY)PHENYL)-PYRIDINE-2-CARBOXAMIDE] | < 25 |
| COc1ccnc(C(=O)N[C@H]2COC(=O)[C@H](Cc3ccccc3)[C@@H](OC(=O)C3CCCC3)[C@H](C)OC2=O)c1O [Compound 391] | < 25 |

Test system: Septoria tritici—SEPTTR
Test: Leaf Blotch of Wheat, in vivo whole plant, 24 Hour Protectant
Settings: 100 ppm spray, wheat, 24 hour protectant, % control of fungal infection vs untreated plants

| Structure (SMILES) | SEPTTR in vivo 1 Day Protectant |
| --- | --- |
| COc1ccnc(C(=O)N[C@H]2COC(=O)[C@H](Cc3ccccc3)[C@@H](OC(=O)C(C)C)[C@H](C)OC2=O)c1OC(=O)C1CCCCC1 [Compound 612] | + + |

Same assay, conditions: Zymoseptoria tritici, 24 h, 100 ppm spray, 24 hour protectant, wheat; control of fungal infection vs untreated plants; read-out: SEPTTR in vivo 1 Day Protectant

| Structure (SMILES) | pest or weed control at 100 ppm [%] |
| --- | --- |
| COc1ccnc(C(=O)NC2CC(C)(C)C=CC(C)C2C)c1O (centres unmarked) [Compound 279] | 25 to 74 |

Same assay, conditions: Zymoseptoria tritici, 24 h, 100 ppm spray, wheat, 24 hour protectant; control of fungal infection vs untreated plants; read-out: SEPTTR in vivo 1 Day Protectant

| Structure (SMILES) | pest or weed control at 100 ppm [%] |
| --- | --- |
| COc1ccnc(C(=O)Nc2ccc(Oc3ccc(C(F)(F)F)cc3)cc2)c1O [Compound 425, 3-HYDROXY-4-METHOXY-N-(4-(4-TRIFLUOROMETHYLPHENOXY)PHENYL)-PYRIDINE-2-CARBOXAMIDE] | 25 to 74 |
| COc1ccnc(C(=O)N[C@H]2COC(=O)[C@H](Cc3ccccc3)[C@@H](OC(=O)C3CCCC3)[C@H](C)OC2=O)c1O [Compound 391] | 25 to 74 |

Test system: Leptosphaeria nodorum—LEPTNO
Test: Glume Blotch of Wheat, in vivo whole plant, 24 Hour Protectant
Settings: 100 ppm spray, wheat, 24 hour protectant, % control of fungal infection vs untreated plants

| Structure (SMILES) | LEPTNO in vivo 1 Day Protectant |
| --- | --- |
| COc1ccnc(C(=O)N[C@H]2COC(=O)[C@H](Cc3ccccc3)[C@@H](OC(=O)C(C)C)[C@H](C)OC2=O)c1OC(=O)C1CCCCC1 [Compound 612] | + + |

Same assay, conditions: 100 ppm spray, wheat, 24 hour protectant; control of fungal infection vs untreated plants

| Structure (SMILES) | LEPTNO in vivo 1 Day Protectant |
| --- | --- |
| COc1ccnc(C(=O)N[C@H]2COC(=O)[C@H](Cc3ccccc3)[C@@H](OC(=O)C3CCCC3)[C@H](C)OC2=O)c1O [Compound 391] | + + |

Same assay, conditions: Leptosphaeria; 100 ppm spray, 24 hour protectant, wheat; control of fungal infection vs untreated plants; read-out: LEPTNO in vivo 1 Day Protectant

| Structure (SMILES) | pest or weed control at 100 ppm [%] |
| --- | --- |
| COc1ccnc(C(=O)NC2CC(C)(C)C=CC(C)C2C)c1O (centres unmarked) [Compound 279] | 25 to 74 |

Same assay, conditions: Leptosphaeria; 100 ppm spray, wheat, 24 hour protectant; control of fungal infection vs untreated plants; read-out: LEPTNO in vivo 1 Day Protectant

| Structure (SMILES) | pest or weed control at 100 ppm [%] |
| --- | --- |
| COc1ccnc(C(=O)Nc2ccc(Oc3ccc(C(F)(F)F)cc3)cc2)c1O [Compound 425, 3-HYDROXY-4-METHOXY-N-(4-(4-TRIFLUOROMETHYLPHENOXY)PHENYL)-PYRIDINE-2-CARBOXAMIDE] | < 25 |
